Where two headings read alike, the source gives them in different places.
What was measured:
Format in all cases: cell-based
[1] = system: SHG44; assay: Tumor cell line inhibition, SHG44
[2] = system: PC-3M; assay: Tumor cell line inhibition, PC-3M; details: PC-3M tumor cell line
[3] = system: A549; assay: Tumor cell line inhibition, A549

| Structure (SMILES) | IC50 ([1]; SHG-44) [µM] | IC50 ([2]; Homo sapiens) [µM] | IC50 ([3]; Homo sapiens) [µM] | IC50 [1] [µM] | IC50 [2] [µM] | IC50 [3] [µM] |
| --- | --- | --- | --- | --- | --- | --- |
| COc1cc2c(Oc3ccc(N(C(=O)C4(C(N)=O)CC4)c4ccc(F)cc4)cc3F)ccnc2cc1OCC1(NC2CCOCC2)CC1 [Example 3, N-(3-fluoro-4-(6-methoxy-7-((1-(tetrahydro-2H-pyran-4-ylamino)cyclopropyl)methoxy)quinolin-4-yloxy)phenyl)-N-(4-fluorophenyl)cyclopropane-1,1-dicarboxamide] | 0.199 | 4.89 | 0.0407 | – | – | – |
| COc1cc2c(Oc3ccc(N(C(=O)C4(C(N)=O)CC4)c4ccccc4)c(F)c3)ccnc2cc1OCC1(N)CC1 [Example 14, N-(4-(7-((1-aminocyclopropyl)methoxy)-6-methoxyquinolin-4-yloxy)-2-fluorophenyl)-N-(phenyl)cyclopropane-1,1-dicarboxamide] | 1.41 | 12.5 | 0.549 | – | – | – |
| COc1ccc(COC(=O)NC2(COc3cc4nccc(Oc5ccc(NC(=O)C6(C(=O)Nc7ccc(F)c(F)c7)CC6)c(F)c5)c4cc3OC)CC2)cc1 [Example 7, 4-methoxybenzyl 1-((4-(4-(1-(3,4-difluorophenylcarbamoyl)cyclopropanecarboxamido)-3-fluoro-phenoxy)-6-methoxyquinolin-7-yloxy)methyl)cyclopropylcarbamate] | 39.1 | 51 | 36 | – | – | – |
| COc1cc2c(Oc3ccc(N(C(=O)C4(C(N)=O)CC4)c4ccc(F)c(F)c4)c(F)c3)ccnc2cc1OCC1(NC2CCOCC2)CC1 [Example 9, N-(3,4-difluorophenyl)-N-(2-fluoro-4-(6-methoxy-7-((1-(tetrahydro-2H-pyran-4-ylamino)-cyclopropyl)methoxy)quinolin-4-yloxy)phenyl)cyclopropane-1,1-dicarboxamide] | 2.18 | 6.02 | 2.22 | – | – | – |
| COc1ccc(COC(=O)NC2(COc3cc4nccc(Oc5ccc(NC(=O)C6(C(=O)Nc7ccccc7)CC6)cc5F)c4cc3OC)CC2)cc1 [Example 13, 4-methoxybenzyl 1-((4-(4-(1-(phenylcarbamoyl)cyclopropanecarboxamido)-2-fluoro-phenoxy)-6-methoxyquinolin-7-yloxy)methyl)cyclopropylcarbamate] | 26 | 53.2 | 45.4 | – | – | – |
| COc1cc2c(Oc3ccc(N(C(=O)C4(C(N)=O)CC4)c4ccc(F)c(F)c4)c(F)c3)ccnc2cc1OCC1(NCC2CC2)CC1 [Example 11, N-(4-(7-((1-(cyclopropylmethylamino)cyclopropyl)methoxy)-6-methoxyquinolin-4-yloxy)-2-fluorophenyl)-N-(3,4-difluorophenyl)cyclopropane-1,1-dicarboxamide] | 0.589 | 16.1 | 0.0659 | – | – | – |
| COc1ccc(COC(=O)NC2(COc3cc4nccc(Oc5ccc(NC(=O)C6(C(=O)Nc7ccc(F)cc7)CC6)cc5F)c4cc3OC)CC2)cc1 [Example 1, 4-methoxybenzyl-1-((4-(2-fluoro-4-(1-(4-fluorophenylcarbamoyl)cyclopropanecarboxamido)-phenoxy)-6-methoxyquinolin-7-yloxy)methyl)cyclopropylcarbamate] | – | – | – | 5.74 | 35.6 | 3.32 |

From patent publication US8664244B2, “Compounds as c-Met kinase inhibitors” (Advenchen Pharmaceuticals, LLC, priority 2010, dated 2014)
